From US20160257697A1, “THIOPHENE-SUBSTITUTED TETRACYCLIC COMPOUNDS AND METHODS OFUSE THEREOF FOR THE TREATMENT OF VIRAL DISEASES” (priority 2013, published 2016)
Read-outs that look alike come from different tables or passages of the source.

Experiments:
Test in all cases: microbe, parasite or virus in culture
Format in all cases: cell-based, Hepatitis C virus (HCV)
HCV replicon 1A = conditions: Replicon Assay A
Procedure, shortened: (§1)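 Three-day treatment of replicon cells (2000/well, 5% FBS, 0.5% DMSO), followed by TaqMan RT-PCR of replicon RNA with cyclophilin as internal control.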

HCV replicon 1B = conditions: HCV replicon 1B, Replicon Assay B
Procedure: In an alternate assay (“Replicon Assay B”), 1000 cells were seeded per well in a 384-well collagen coated black plate from Greiner bio-one (Cat #781946) in 5% FBS. Inhibitors of this invention were added at 24 h post-seeding, and the plates were incubated for 3 days. Cells were subsequently lysed with Qiagen lysis buffer (Cat #1062731) to extract the RNA. HCV replicon RNA level was measured by real-time PCR using the RNA-to-CT kit from Applied Biosystem (Cat #4392656) and genotype-specific primers and probes. The amplicon was located within NS5B. […] (SEQ. ID NO. 2); the probe sequence was FAM-labeled […] (SEQ. ID NO. 3).
The real-time RT-PCR reactions were run on ABI PRISM 7900HT or Viia7 Sequence Detection System using the following program: 48° C. for 30 minutes, 95° C. for 10 minutes, 40 cycles of 95° C. for 15 sec, 60° C. for 1 minutes.
Data for replicons 1A, 1AY93H and 2B were obtained using Replicon Assay A and data for replicons 1AQ30D and 1B were obtained using Replicon Assay B.

HCV replicon 2B = conditions: Replicon Assay A
Procedure, shortened: as §1

HCV replicon 1AY93H = conditions: Replicon Assay A
Procedure, shortened: as §1

[1] = Hepatitis C virus, HCV replicon 1A
[2] = Hepatitis C virus, read-out: 2B IC50, HCV replicon 2B
[3] = read-out: 1A Y93H IC50, HCV replicon 1A Y93H
[4] = read-out: 2B IC50, HCV replicon 2B
[5] = read-out: 1A Y93H IC50, replicon 1AY93H
[6] = Hepatitis C virus, read-out: 1A Y93H IC50, HCV replicon 1A Y93H

COC(=O)N[C@H](C(=O)N1CCC[C@H]1c1ncc(-c2cc(F)c3c(c2)OC(c2ccc(C4CC4)s2)n2c-3c(C)c3cc(-c4cnc([C@@H]5CCCN5C(=O)[C@@H](NC(=O)OC)C(C)C)[nH]4)ccc32)[nH]1)C(C)C (single isomer, unassigned) [Compound 842]
IC50 (HCV replicon 1A; HCV replicon 1A): 0.0066 nM
IC50 (HCV replicon 1B): 0.0014 nM

COC(=O)N[C@H](C(=O)N1CCC[C@H]1c1ncc(-c2cc3c4c(c2)OC(c2ccc(Cl)s2)n2c-4c(c4cc(-c5cnc([C@@H]6CCCN6C(=O)[C@@H](NC(=O)OC)C(C)C)[nH]5)ccc42)CC3)[nH]1)C(C)C (some centres unmarked) [Compound 834]
IC50 (HCV replicon 1A; [1]): 0.0842 nM
IC50 (HCV replicon 2B; [2]): 16.7 nM
IC50 (HCV replicon 1B; Hepatitis C virus): 0.0488 nM

CCc1c2n(c3ccc(-c4cnc(C5CCCN5C(=O)C(NC(=O)OC)C(C)C)[nH]4)cc13)C(c1ccc(C3CC3)s1)Oc1cc(-c3cnc(C4CCCN4C(=O)C(NC(=O)OC)C(C)C)[nH]3)cc(F)c1-2 (single isomer, unassigned) [Compound 839]
IC50 (HCV replicon 1AY93H; HCV replicon 1A Y93H, read-out: 1A Y93H IC50): 0.865 nM
IC50 (HCV replicon 2B; HCV replicon 2B, read-out: 2B IC50): 0.971 nM
IC50 (HCV replicon 1B): 0.0023 nM

COC(=O)N[C@H](C(=O)N1C2CC2C[C@H]1c1ncc(-c2cc(F)c3c(c2)OC(c2ccc(C4CC4)s2)n2c-3cc3cc(-c4cnc([C@@H]5CCCN5C(=O)[C@@H](NC(=O)OC)C5C[C@@H](C)O[C@@H](C)C5)[nH]4)ccc32)[nH]1)C(C)C (single isomer, unassigned) [Compound 556]
IC50 (HCV replicon 1AY93H; [3]): 0.251 nM
IC50 (HCV replicon 1A; HCV replicon 1A): 0.0512 nM
IC50 (HCV replicon 2B; [4]): 0.976 nM

CCc1ccc(C2Oc3cc(-c4cnc([C@@H]5CCCN5C(=O)[C@@H](NC(=O)OC)C(C)C)[nH]4)cc(F)c3-c3cc4cc(-c5cnc([C@@H]6C[C@H]7C[C@H]7N6C(=O)C(NC(=O)OC)C6CCOC(C)(C)C6)[nH]5)ccc4n32)s1 (single isomer, unassigned) [Compound 197]
IC50 (HCV replicon 1AY93H; [5]): 0.1 nM
IC50 (HCV replicon 1A; replicon 1A): 0.0021 nM
IC50 (HCV replicon 2B; read-out: 2B IC50, replicon 2B): 0.47 nM

COC(=O)N[C@H](C(=O)N1C2C[C@@H]2C[C@H]1c1nc(-c2ccc3c(c2)cc2n3C(c3ccc(Cl)s3)Oc3cc(-c4c[nH]c([C@@H]5C[C@H]6C[C@H]6N5C(=O)[C@@H](NC(=O)OC)C(C)C)n4)ccc3-2)c[nH]1)C(C)C (mixture of isomers) [Compound 710]
IC50 (HCV replicon 1AY93H; [6]): 0.2 nM
IC50 (HCV replicon 1A; [1]): 0.05 nM
IC50 (HCV replicon 2B; [2]): 1.08 nM

COC(=O)N[C@H](C(=O)N1C[C@H](F)C[C@H]1c1nc(-c2ccc3c(c2)OC(c2ccc(C)s2)n2c-3cc3cc(-c4c[nH]c([C@@H]5C[C@H]6C[C@H]6N5C(=O)[C@@H](NC(=O)OC)C5CCOCC5)n4)ccc32)c[nH]1)C1CCOCC1 (single isomer, unassigned) [Compound 729]
IC50 (HCV replicon 1AY93H; [3]): 0.22 nM
IC50 (HCV replicon 1A; HCV replicon 1A): 0.028 nM
IC50 (HCV replicon 2B; [4]): 0.034 nM

COC(=O)N[C@@H](Cc1ccccc1)C(=O)N1CCC[C@H]1c1ncc(-c2ccc3c(c2)OC(c2ccc(-c4ccc(NC(=O)CCCC[C@@H]5SC[C@@H]6NC(=O)N[C@@H]65)cc4)s2)n2c-3cc3cc(-c4cnc([C@@H]5CCCN5C(=O)[C@H](Cc5ccccc5)NC(=O)OC)[nH]4)ccc32)[nH]1 (single isomer, unassigned) [Compound 383]
IC50 (HCV replicon 1AY93H; [5]): 6.34 nM
IC50 (HCV replicon 1A; replicon 1A): 0.0367 nM
IC50 (HCV replicon 2B; read-out: 2B IC50, replicon 2B): 8.74 nM

COC(=O)N[C@H](C(=O)N1C[C@H](F)C[C@H]1c1ncc(-c2ccc3c(c2)OC(c2ccc(C)s2)n2c-3cc3cc(-c4cnc([C@@H]5C[C@H]6C[C@H]6N5C(=O)[C@@H](NC(=O)OC)C(C)C)[nH]4)ccc32)[nH]1)C(C)C (single isomer, unassigned) [Compound 706]
IC50 (HCV replicon 1AY93H; [3]): 2.45 nM
IC50 (HCV replicon 1A; HCV replicon 1A): 0.023 nM
IC50 (HCV replicon 2B; [4]): 4.61 nM

COC(=O)N[C@H](C(=O)N1CCC[C@H]1c1ncc(-c2cc(F)c3c(c2)OC(c2ccc(CC(C)C)s2)n2c-3cc3cc(-c4cnc([C@@H]5CCCN5C(=O)[C@@H](NC(=O)OC)C(C)C)[nH]4)ccc32)[nH]1)C(C)C (single isomer, unassigned) [Compound 521]
IC50 (HCV replicon 1AY93H; [3]): 0.695 nM
IC50 (HCV replicon 1A; HCV replicon 1A): 0.00652 nM
IC50 (HCV replicon 2B; [4]): 3.49 nM

COC(=O)N[C@H](C(=O)N1CCC[C@H]1c1ncc(-c2ccc3c(c2)O[C@@H](c2cc4cc(OC)ccc4s2)n2c-3cc3cc(-c4cnc([C@@H]5CCCN5C(=O)[C@@H](NC(=O)OC)C(C)C)[nH]4)ccc32)[nH]1)C(C)C [Compound 758]
IC50 (HCV replicon 1AY93H; [6]): 0.17 nM
IC50 (HCV replicon 1A; [1]): 0.005 nM
IC50 (HCV replicon 2B; [2]): 0.43 nM
